10 molecules from patent US20130029970A1 (priority 2009, published 2013) can be followed below.

One experiment addresses T1, human CB2 receptors (Homo sapiens, UniProt P34972).
T1 construct: (cDNA clone) CNR0200000
In words: cAMP assay in HEK-293 cells, hCB2 agonist. Format: cell-based. The conditions noted are these: for hCB2 EC50 (cAMP ag, nM): inhibition of forskolin-stimulated cAMP, HEK-293 cells. How it is done: (§1) Functional assays which monitor G-protein coupled receptor or downstream cellular responses can be used to characterize potential CB1 receptor and/or CB2 receptor agonist or antagonist activities. Direct activation (or inhibition of activation) can be monitored using a GTPγS assay (membrane-based assay) or cAMP assay (whole cell-based assay).
cAMP assays were performed in HEK-293 cells stably expressing human CB1 or CB2 receptors. […] Cells suspensions were centrifuged and the cells were washed once with PBS, were centrifuged again, and the cells were re-suspended in HBSS (Hank's Balanced Salt Solution, Cellgro, Cat #21-022-CV) solution containing 10 mM HEPES and 0.1% fatty acid free BSA (Sigma, Cat #A0281). Cell suspensions were prepared at 1,500,000 cells per ml. Stock solutions of test substances (10 mM) in DMSO were diluted to 1 mM using 30% DMSO as diluent. Test substances of solutions (1 mM) were further diluted down to 3× of final assay concentrations in the above HBSS buffer containing 0.1% BSA in the presence of 90 uM forskolin (Sigma Cat#F6886). To perform the assay, 20 uL of cell suspension (1,500,000 cells/mL) were added to each well in 96 well plate and treated with 10 uL test substance solution diluted as described above. Cells and compounds were incubated at 37° C. for 30 minutes. Cells were lysed and cAMP concentration was measured using DiscoveRx −XS+ cAMP assay kit (DiscoveRx Corporation Ltd., Fremont, Calif., USA, Cat #90-0075-03), following the manufacturer's protocol. GraphPad Prism software was used to calculate EC50 values using sigmoidal dose response curve fitting. The maximal amount of cAMP produced by forskolin was defined as 100%.
In general terms: Cyclic AMP is a second messenger, typically raised through Gs and lowered through Gi signalling.

In a further experiment the target is T2, human CB1 receptors (Homo sapiens, UniProt P21554).
T2 construct: (cDNA clone) CNR01L000
In words: cAMP assay in HEK-293 cells, hCB1 agonist. Format: cell-based. The conditions noted are these: inhibition of forskolin-stimulated cAMP, HEK-293 cells.
Description: (§2) Stable, HEK-293-derived cell lines that recombinantly express hCBI or hCB2 were established. In brief, the clone hCB1 (CNR IL) or hCB2 (CNR2) was transfected into human embryonic kidney cells (HEK-293) using Lipofectamine 2000 (Gibco, Cat#11668-019) according to the manufacturer's protocol. Transfected clones were isolated by single colony purification and clones were screened for receptor expression using a whole cell, ^3H—CP 55,940 radioligand binding assay. HEK-293 stable cells were maintained in Dulbecco's modified Eagles medium (DMEM) containing 10% fetal bovine serum, 2 mM L-glutamine and 0.5 mg/mL G-418.
as §1
cAMP assays were performed in HEK-293 cells stably expressing human CB1 or CB2 receptors. For cannabinoid receptor functional assays measuring agonist effects on cellular cAMP levels, monolayers of cultured cells were harvested with enzyme-free PBS-based cell dissociation buffer (Gibco, Cat#13151-04). Cells suspensions were centrifuged and the cells were washed once with PBS, were centrifuged again, and the cells were re-suspended in HBSS (Hank's Balanced Salt Solution, Cellgro, Cat #21-022-CV) solution containing 10 mM HEPES and 0.1% fatty acid free BSA (Sigma, Cat #A0281). Cell suspensions were prepared at 1,500,000 cells per ml. Stock solutions of test substances (10 mM) in DMSO were diluted to 1 mM using 30% DMSO as diluent. Test substances of solutions (1 mM) were further diluted down to 3× of final assay concentrations in the above HBSS buffer containing 0.1% BSA in the presence of 90 uM forskolin (Sigma Cat#F6886). To perform the assay, 20 uL of cell suspension (1,500,000 cells/mL) were added to each well in 96 well plate and treated with 10 uL test substance solution diluted as described above. Cells and compounds were incubated at 37° C. for 30 minutes. Cells were lysed and cAMP concentration was measured using DiscoveRx −XS+ cAMP assay kit (DiscoveRx Corporation Ltd., Fremont, Calif., USA, Cat #90-0075-03), following the manufacturer's protocol. GraphPad Prism software was used to calculate EC50 values using sigmoidal dose response curve fitting. The maximal amount of cAMP produced by forskolin was defined as 100%. CB1 or CB2 agonists reduced forskolin-stimulated cAMP signaling. The EC50 value of an agonist compound was defined as the concentration at which 50% of the forskolin-stimulated cAMP synthesis was inhibited.

Experiment [1] deals with T3, recombinant human cannabinoid receptor CB2 (Homo sapiens, UniProt P34972).
T3 construct: (cDNA clone) CNR0200000
As to the kind of experiment: Cannabinoid receptor radioligand binding assay, [3H]-CP 55,940 displacement, hCB2. The method, then: Membranes were isolated from transfected cells as follows. Monolayers of cultured cells were washed twice with phosphate-buffered saline (PBS). […] Homogenates were centrifuged 10 minutes at 1000×g at 4° C. The supernatant was collected and was centrifuged for 1 hour at 40,000×g. The supernatant was then decanted and the resulting pellet was re-suspended in 20 mM HEPES, pH 7.4, 5 mM MgCl2, 1 mM EDTA, 10% sucrose with complete cocktail protease inhibitors. Protein concentration of membrane suspensions were measured by Bradford Protein Assay using bovine serum albumin as the standard (BioRad catalog #500-0006). Protein concentrations of membrane suspensions were adjusted with the final buffer in the range of 5 to 10 mg/mL and were stored at −80° C. until further use.
A rapid filtration technique using Millipore FB filter plates (Catalog #MADVNOB) and filtration apparatus (Millipore system Catalog MAVM0960R) with vacuum aspiration was used to harvest and rinse labeled membranes (8 times with 0.2 mL of chilled binding buffer). […] Binding data were analyzed using GraphPad Prism (GraphPad Software, Inc. San Diego, Calif.).

The target of experiment [2] is T4, recombinant human cannabinoid receptor CB1 (Homo sapiens, UniProt P21554).
T4 construct: (cDNA clone) CNR01L000
As to the kind of experiment: Cannabinoid receptor radioligand binding assay, [3H]-CP 55,940 displacement, hCB1.
Description: as §2
Membranes were isolated from transfected cells as follows. Monolayers of cultured cells were washed twice with phosphate-buffered saline (PBS). Cells were scraped into 20 mM HEPES, pH 7.4, 10 mM EDTA containing complete cocktail protease inhibitors (Roche, Catalog #11 697 498 001) and were homogenized by an electric-powered mechanical probe homogenizer (Omni GLH; probe G7-195S) for 40 seconds at 7000 rpm. Homogenates were centrifuged 10 minutes at 1000×g at 4° C. The supernatant was collected and was centrifuged for 1 hour at 40,000×g. The supernatant was then decanted and the resulting pellet was re-suspended in 20 mM HEPES, pH 7.4, 5 mM MgCl2, 1 mM EDTA, 10% sucrose with complete cocktail protease inhibitors. Protein concentration of membrane suspensions were measured by Bradford Protein Assay using bovine serum albumin as the standard (BioRad catalog #500-0006). Protein concentrations of membrane suspensions were adjusted with the final buffer in the range of 5 to 10 mg/mL and were stored at −80° C. until further use.
Radioligand binding assays were performed by incubating membranes (2-10 μg protein) prepared from HEK-293 cells expressing recombinant human cannabinoid receptors, CB1 or CB2, at room temperature with 0.5 nM cannabinoid receptor agonist, [^3H]-CP 55,940 (Perkin Elmer, catalog #NET1051) in 0.2 mL of binding buffer (50 mM Tris-HCl, pH 7.5, 5 mM MgCl2, 2.5 mM EDTA) and 0.1% fatty acid free bovine serum albumin (Sigma Cat. #A0821) for 90 minutes. A rapid filtration technique using Millipore FB filter plates (Catalog #MADVNOB) and filtration apparatus (Millipore system Catalog MAVM0960R) with vacuum aspiration was used to harvest and rinse labeled membranes (8 times with 0.2 mL of chilled binding buffer). The radioactivity bound to the filters was counted with 0.05 mL of liquid scintillant (UltraGold MV, PerkinElmer catalog #6013159) in a scintillation counter (Perkin Elmer Microbeta instrument). Nonspecific binding was determined in the presence of unlabeled 1 μM CP 55,940 (Sigma Aldrich, catalog #C1112). Binding data were analyzed using GraphPad Prism (GraphPad Software, Inc. San Diego, Calif.).

The mark [3] stands for this setting: displacement of 0.5 nM [3H]-CP 55,940, read-out: hCB2 IC50 (CP displ).
[4] abbreviates: displacement of 0.5 nM [3H]-CP 55,940, read-out: hCB1 IC50 (CP displ).

Read-outs that look alike come from different tables or passages of the source. A value given as a limit tells only on which side of the number the result lay.

T3 sequence (P34972 whole entry): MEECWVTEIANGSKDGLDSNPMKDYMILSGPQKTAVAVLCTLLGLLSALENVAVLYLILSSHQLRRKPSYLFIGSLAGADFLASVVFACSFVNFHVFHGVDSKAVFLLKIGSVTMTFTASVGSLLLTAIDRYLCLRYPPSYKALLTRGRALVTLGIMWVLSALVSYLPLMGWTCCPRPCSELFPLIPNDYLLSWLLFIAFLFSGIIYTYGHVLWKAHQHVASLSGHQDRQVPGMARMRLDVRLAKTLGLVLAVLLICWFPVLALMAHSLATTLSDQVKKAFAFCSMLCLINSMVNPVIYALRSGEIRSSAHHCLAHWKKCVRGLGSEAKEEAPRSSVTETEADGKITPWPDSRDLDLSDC
T1 sequence (P34972 whole entry): as above
T2 sequence (P21554 whole entry): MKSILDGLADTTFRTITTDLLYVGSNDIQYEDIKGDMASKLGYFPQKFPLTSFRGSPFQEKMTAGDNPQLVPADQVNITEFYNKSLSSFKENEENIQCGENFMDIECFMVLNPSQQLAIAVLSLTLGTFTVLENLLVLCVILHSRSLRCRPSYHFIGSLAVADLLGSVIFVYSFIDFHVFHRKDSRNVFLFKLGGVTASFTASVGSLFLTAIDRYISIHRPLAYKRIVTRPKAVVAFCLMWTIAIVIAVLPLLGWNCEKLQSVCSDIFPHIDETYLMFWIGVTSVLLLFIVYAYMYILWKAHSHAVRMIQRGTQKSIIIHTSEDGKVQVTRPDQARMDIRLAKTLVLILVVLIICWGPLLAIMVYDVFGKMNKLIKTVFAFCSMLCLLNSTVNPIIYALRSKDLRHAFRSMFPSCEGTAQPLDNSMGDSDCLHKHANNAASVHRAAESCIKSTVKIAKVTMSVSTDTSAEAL
T4 sequence (P21554 whole entry): as above

Broadly, the EC50 is the concentration at which the effect is half-maximal. What is called IC50 is the concentration that gives 50% inhibition. Consider `Cc1cc2cc(C(=O)c3ccccn3)sc2n1CCN1CCOCC1` [Compound 16], for which the EC50 at human CB2 receptors was 0.1 to 1 µM. For the same molecule, at human CB1 receptors, the “hCB1 EC50 (cAMP ag, nM)” value was “NS (NS means “Not Significant,” which means less than 30% agonist activity when compared to the positive control.)”. The values for the concentration for half-maximal inhibition (IC50) in experiment [1] and in experiment [2] were 1 to 10 µM and above 10 µM, respectively.
Turning to `COc1ccc(C(=O)c2cc3cc(C)n(CCCNS(=O)(=O)c4ccccc4)c3s2)cc1` [Compound 81, N-(3-(2-(4-Methoxybenzoyl)-5-methyl-6H-thieno[2,3-b]pyrrol-6-yl)propyl)benzenesulfonamide], on human CB2 receptors, the “hCB2 EC50 (cAMP ag, nM)” value is given as “NS (NS means “Not Significant,” which means less than 30% agonist activity when compared to the positive control.)”. In addition, on human CB1 receptors, the “hCB1 EC50 (cAMP ag, nM)” value is listed as “NS (NS means “Not Significant,” which means less than 30% agonist activity when compared to the positive control.)”. For the same molecule, the IC50 was 1 to 10 µM in experiment [1] (setting [3]) and above 10 µM in experiment [2] (setting [4]).
Take `COc1ccc(C(=O)c2cc3cc(C)n(CCN4CCN(S(C)(=O)=O)CC4)c3s2)cn1` [Compound 143, (6-methoxypyridin-3-yl)(5-methyl-6-(2-(4-(methylsulfonyl)piperazin-1-yl)ethyl)-6H-thieno[2,3-b]pyrrol-2-yl)methanone]: at human CB2 receptors, the “hCB2 EC50 (cAMP ag, nM)” value is “NS (NS means “Not Significant,” which means less than 30% agonist activity when compared to the positive control.)”. In addition, the “hCB1 EC50 (cAMP ag, nM)” value at human CB1 receptors is “NS (NS means “Not Significant,” which means less than 30% agonist activity when compared to the positive control.)”. In addition, the half-inhibitory concentration (IC50) in experiment [1] (setting [3]) and in experiment [2] (setting [4]) was above 10 µM each time.
For the molecule `Cc1cc2cc(C(=O)c3cccnc3)sc2n1CCN1CCOCC1` [Compound 14, (5-Methyl-6-(2-morpholinoethyl)-6H-thieno[2,3-b]pyrrol-2-yl)(pyridin-3-yl)methanone], the concentration giving a half-maximal response (EC50) at human CB2 receptors lay within 0.1 to 1 µM. Also, the “hCB1 EC50 (cAMP ag, nM)” value at human CB1 receptors is given as “NS (NS means “Not Significant,” which means less than 30% agonist activity when compared to the positive control.)”. The concentration for half-maximal inhibition (IC50) in experiment [1] was 1 to 10 µM; in experiment [2] it was above 10 µM.
Turning to `COc1ccc(C(=O)c2cc3cc(C)n(CCN4CCOCC4=O)c3s2)cn1` [Compound 148, 4-(2-(2-(6-methoxynicotinoyl)-5-methyl-6H-thieno[2,3-b]pyrrol-6-yl)ethyl)morpholin-3-one], the “hCB1 EC50 (cAMP ag, nM)” value at human CB1 receptors was “NS (NS means “Not Significant,” which means less than 30% agonist activity when compared to the positive control.)”. Also, the half-maximal inhibitory concentration (IC50) in experiment [1] (setting [3]) and in experiment [2] (setting [4]) was above 10 µM in each case.
As to `COc1ccc(C(=O)c2cc3cc(C)n(C(=O)N4CCOCC4)c3s2)cc1` [Compound 66, (2-(4-Methoxybenzoyl)-5-methyl-6H-thieno[2,3-b]pyrrol-6-yl)(morpholino)methanone], the “hCB1 EC50 (cAMP ag, nM)” value at human CB1 receptors is recorded as “NS (NS means “Not Significant,” which means less than 30% agonist activity when compared to the positive control.)”. Besides, the IC50 in experiment [1] (setting [3]) and in experiment [2] (setting [4]) was above 10 µM throughout.
Regarding `Cc1cc2cc(C(=O)c3cccc(Cl)c3Cl)sc2[nH]1` [Compound 2, (2,3-dichlorophenyl)(5-methyl-6H-thieno[2,3-b]pyrrol-2-yl)methanone], the half-maximal effective concentration (EC50) at human CB2 receptors is 1 to 10 µM. Also, the “hCB1 EC50 (cAMP ag, nM)” value at human CB1 receptors was “NS (NS means “Not Significant,” which means less than 30% agonist activity when compared to the positive control.)”. Further, the values for the concentration for half-maximal inhibition (IC50) in experiment [1] (setting [3]) and in experiment [2] (setting [4]) were 1 to 10 µM and above 10 µM, respectively.
Turning to `Cc1cc2cc(C(=O)c3ccncn3)sc2n1CCN1CCOCC1` [Compound 34, (5-Methyl-6-(2-morpholinoethyl)-6H-thieno[2,3-b]pyrrol-2-yl)(pyrimidin-4-yl)methanone], at human CB2 receptors, the EC50 lay within 1 to 10 µM. In addition, the “hCB1 EC50 (cAMP ag, nM)” value at human CB1 receptors is “NS (NS means “Not Significant,” which means less than 30% agonist activity when compared to the positive control.)”. The IC50 in experiment [1] (setting [3]) and in experiment [2] (setting [4]) was above 10 µM in each case.
For `Cc1cc2cc(C(=O)c3cccc(Cl)c3Cl)sc2n1CC(=O)N1CCOCC1` [Compound 22, 2-(2-(2,3-Dichlorobenzoyl)-5-methyl-6H-thieno[2,3-b]pyrrol-6-yl)-1-morpholinoethanone], the EC50 at human CB2 receptors and on human CB1 receptors (read-out: hCB1 EC50 (cAMP ag)) was 0.1 to 1 µM each time. Besides, the IC50 in experiment [1] is 1 to 10 µM; in experiment [2] it was above 10 µM.
On human CB2 receptors, `COc1ccc(C(=O)c2cc3cc(C)n(CCN4CCCC4C(=O)O)c3s2)cn1` (centres unmarked) [Compound 146, 1-(2-(2-(6-methoxynicotinoyl)-5-methyl-6H-thieno[2,3-b]pyrrol-6-yl)ethyl)pyrrolidine-2-carboxylic acid] returned a concentration for a half-maximal effect (EC50) of 0.1 to 1 µM. Also, the “hCB1 EC50 (cAMP ag, nM)” value on human CB1 receptors is reported as “NS (NS means “Not Significant,” which means less than 30% agonist activity when compared to the positive control.)”. Also, the IC50 in experiment [1] is 0.1 to 1 µM; in experiment [2] it was above 10 µM.
